Experimental data: ChEMBL document CHEMBL2010716, “Structure based design of an in vivo active hydroxamic acid inhibitor of P. aeruginosa LpxC” (Bioorg Med Chem Lett, 2012)
Values after ≈ are worked out from the molar mass of the structure shown. Active and inactive are the calls of the source. The rule behind the calls is not given here.

Key:
[1] = tested on: Pseudomonas aeruginosa; experiment: Antibacterial activity against efflux pump knock-down Pseudomonas aeruginosa PAO280 by twofold broth microdilution technique; assay type: functional
[2] = tested on: Pseudomonas aeruginosa; experiment: Antibacterial activity against wild type Pseudomonas aeruginosa UI-18 by NCCLS method; assay type: functional
[3] = target: T1, UDP-3-O-acyl-N-acetylglucosamine deacetylase (Pseudomonas aeruginosa (strain ATCC 15692 / PAO1 / 1C / PRS 101 / LMG12228), UniProt P47205); experiment: Inhibition of Pseudomonas aeruginosa LpxC
T1 sequence (P47205 whole entry): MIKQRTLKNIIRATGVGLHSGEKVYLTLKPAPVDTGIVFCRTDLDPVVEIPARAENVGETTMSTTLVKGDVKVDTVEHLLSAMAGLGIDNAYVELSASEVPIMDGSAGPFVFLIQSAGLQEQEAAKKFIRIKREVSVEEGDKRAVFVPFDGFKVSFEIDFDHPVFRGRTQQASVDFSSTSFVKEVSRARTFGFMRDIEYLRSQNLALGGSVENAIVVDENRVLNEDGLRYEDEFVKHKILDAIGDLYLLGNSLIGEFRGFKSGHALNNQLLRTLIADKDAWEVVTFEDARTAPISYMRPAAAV

[4] = Kinetic solubility of the compound; assay type: physicochemical; conditions: read-out: Kinetic_solubility
[5] = Half life in human hepatocytes; assay type: ADME, cell-based, Liver, Hepatocyte
[6] = tested on: Pseudomonas aeruginosa; experiment: Antibacterial activity against wild type Pseudomonas aeruginosa; assay type: functional
[7] = tested on: Pseudomonas aeruginosa; experiment: Antibacterial activity against wild type Pseudomonas aeruginosa UI-18 infected in iv dosed mouse; assay type: functional; conditions: UI-18, iv, read-out: PD50
[8] = Kinetic solubility of the compound at pH 6.5; assay type: physicochemical; conditions: buffer, read-out: Kinetic_solubility
[9] = tested on: Pseudomonas aeruginosa; experiment: Antibacterial activity against wild type Pseudomonas aeruginosa UI-18 infected in sc dosed mouse; assay type: functional, organism-based
[10] = tested on: Pseudomonas aeruginosa; experiment: Antibacterial activity against Pseudomonas aeruginosa C53; assay type: functional
[11] = target: T2, UDP-3-O-acyl-N-acetylglucosamine deacetylase (Escherichia coli K-12, UniProt P0A725); experiment: Inhibition of Escherichia coli LpxC
T2 sequence (P0A725 whole entry): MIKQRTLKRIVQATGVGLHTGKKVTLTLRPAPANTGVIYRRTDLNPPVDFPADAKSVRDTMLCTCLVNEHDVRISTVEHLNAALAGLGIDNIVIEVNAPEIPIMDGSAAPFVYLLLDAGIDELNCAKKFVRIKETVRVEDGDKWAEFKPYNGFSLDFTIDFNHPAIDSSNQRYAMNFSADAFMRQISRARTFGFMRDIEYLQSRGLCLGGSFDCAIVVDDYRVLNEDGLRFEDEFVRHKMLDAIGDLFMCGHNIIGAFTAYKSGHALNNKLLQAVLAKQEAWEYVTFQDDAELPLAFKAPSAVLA

[12] = Half life in rat hepatocytes; assay type: ADME, cell-based, Liver, Hepatocyte

Compound	MIC [1]	MIC [2]	IC50 [3]	also measured
CC(C)C[C@H](O)[C@](C)(OCc1ccc(-c2ccccc2)cc1)C(=O)NO	64 µg/mL (≈ 179 µM)	> 64 µg/mL	–	–
C[C@@](OCc1ccc(-c2ccccc2)cc1)(C(=O)NO)[C@@H](O)c1c[nH]cn1	0.125 µg/mL (≈ 0.34 µM)	8 µg/mL (≈ 21.8 µM)	0.0008 µM	–
C[C@@H](O)[C@](C)(OCc1ccc(-c2ccccc2)cc1)C(=O)NO	0.75 µg/mL (≈ 2.38 µM)	64 µg/mL (≈ 203 µM)	0.004 µM	–
Cn1nncc1[C@H](O)[C@](C)(OCc1ccc(-c2ccccc2)cc1)C(=O)NO	2 µg/mL (≈ 5.23 µM)	> 64 µg/mL	0.026 µM	–
C[C@](OCc1ccc(-c2ccccc2)cc1)(C(=O)NO)[C@@H](O)c1ccccn1	0.25 µg/mL (≈ 0.661 µM)	32 µg/mL (≈ 84.6 µM)	0.015 µM	–
CC(CO)(OCc1ccc(-c2ccccc2)cc1)C(=O)NO (racemic)	4 µg/mL (≈ 13.3 µM)	> 64 µg/mL	0.022 µM	solubility kinetic [4]: 200 µM (≈ 60.3 µg/mL); half-life [5]: 6 h; MIC [6]: > 64 µg/mL
C[C@@](OCc1ccc(-c2ccccc2)cc1)(C(=O)NO)[C@@H](O)c1cc(CO)on1	0.015 µg/mL (≈ 0.0376 µM)	1 µg/mL (≈ 2.51 µM)	0.0006 µM	ED50 [7]: 37 mg/kg; half-life [5]: 2.33 h; solubility kinetic [8]: 130 µM (≈ 51.8 µg/mL); Activity [9]: inactive
C[C@@H](N)[C@@H](NC(=O)N1CCN(c2ccc(C#Cc3ccccc3)cc2)CC1)C(=O)NO	–	–	–	MIC [6]: 12.5 µg/mL (≈ 29.7 µM)
CCCC[C@H](O)[C@](C)(OCc1ccc(-c2ccccc2)cc1)C(=O)NO	–	–	0.09 µM	–
CC(CO)(CCc1ccc(-c2ccccc2)cc1)C(=O)NO (configuration not stated)	0.5 µg/mL (≈ 1.67 µM)	16 µg/mL (≈ 53.4 µM)	0.0033 µM	solubility kinetic [4]: 89 µM (≈ 26.6 µg/mL); half-life [5]: 1.2 h
C[C@@](OCc1ccc(-c2ccccc2)cc1)(C(=O)NO)[C@@H](O)c1ccon1	0.06 µg/mL (≈ 0.163 µM)	6 µg/mL (≈ 16.3 µM)	0.0004 µM	–
CC(C)[C@H](O)[C@](C)(OCc1ccc(-c2ccccc2)cc1)C(=O)NO	32 µg/mL (≈ 93.2 µM)	> 64 µg/mL	–	–
C[C@@](OCc1ccc(-c2ccccc2)cc1)(C(=O)NO)[C@@H](O)c1cccnc1	0.5 µg/mL (≈ 1.32 µM)	32 µg/mL (≈ 84.6 µM)	0.018 µM	–
O=C(NO)[C@@H](Cc1ccc2ccccc2c1)NS(=O)(=O)c1ccc2ccccc2c1	–	–	–	MIC [10]: 4 µg/mL (≈ 9.51 µM); Ki [11]: 0.02 µM
C[C@@](OCc1ccc(-c2ccccc2)cc1)(C(=O)NO)[C@@H](O)c1ccn[nH]1	0.25 µg/mL (≈ 0.68 µM)	4 µg/mL (≈ 10.9 µM)	0.0004 µM	–
CC[C@H](O)[C@@](C)(OCc1ccc(-c2ccccc2)cc1)C(=O)NO	3 µg/mL (≈ 9.11 µM)	> 64 µg/mL	0.008 µM	–
Cc1cc([C@H](O)[C@](C)(OCc2ccc(-c3ccccc3)cc2)C(=O)NO)no1	0.015 µg/mL (≈ 0.0392 µM)	1.75 µg/mL (≈ 4.58 µM)	–	half-life [5]: 0.333 h; solubility kinetic [8]: 59 µM (≈ 22.6 µg/mL)
CC(CO)(COc1ccc(-c2ccccc2)cc1)C(=O)NO (configuration not stated)	–	–	0.39 µM	solubility kinetic [4]: 26 µM (≈ 7.83 µg/mL); half-life [5]: 1.43 h
CCOCC[C@H](O)[C@](C)(OCc1ccc(-c2ccccc2)cc1)C(=O)NO	> 64 µg/mL	> 64 µg/mL	0.028 µM	–
C[C@@](OCc1ccc(-c2ccccc2)cc1)(C(=O)NO)[C@@H](O)c1ccno1	0.125 µg/mL (≈ 0.339 µM)	8 µg/mL (≈ 21.7 µM)	0.0008 µM	–
CC(C)(OCc1ccc(-c2ccccc2)cc1)C(=O)NO	–	–	0.311 µM	MIC [6]: > 64 µg/mL
CCc1ccc(-c2ccc(C(=O)N[C@H](C(=O)NO)[C@@H](C)O)cc2)cc1	–	–	0.008 µM	half-life [12]: 0.75 h; half-life [5]: 3.83 h; MIC [6]: 4 µg/mL (≈ 11.7 µM)
C[C@H](O)[C@](C)(OCc1ccc(-c2ccccc2)cc1)C(=O)NO	0.5 µg/mL (≈ 1.59 µM)	32 µg/mL (≈ 101 µM)	–	–
Cn1ccnc1[C@H](O)[C@](C)(OCc1ccc(-c2ccccc2)cc1)C(=O)NO	0.19 µg/mL (≈ 0.498 µM)	33 µg/mL (≈ 86.5 µM)	0.025 µM	–
C[C@@](OCc1ccc(-c2ccccc2)cc1)(C(=O)NO)[C@@H](O)c1ncco1	0.25 µg/mL (≈ 0.679 µM)	8 µg/mL (≈ 21.7 µM)	0.003 µM	–
C[C@@](OCc1ccc(-c2ccccc2)cc1)(C(=O)NO)[C@@H](O)c1ccccc1	8 µg/mL (≈ 21.2 µM)	> 64 µg/mL	0.051 µM	–
CC(CO)(NC(=O)c1ccc(-c2ccccc2)cc1)C(=O)NO (racemic)	32 µg/mL (≈ 102 µM)	> 64 µg/mL	0.286 µM	solubility kinetic [4]: 200 µM (≈ 62.9 µg/mL); half-life [12]: 3.67 h; half-life [5]: 3.83 h; MIC [6]: > 64 µg/mL
